Assay: Determination of GC-odor threshold values (gas chromatograph with sniff port, panel of trained evaluators)
Conditions: absolute amount of compound delivered at the sniff port, identical conditions
Description: As used herein, “odor threshold value” means the lowest concentration of a vapour in the air which can be detected by smell. Generally speaking, it can be said that a compound with a low odor threshold value is more powerful than a compound with a high odor threshold value and thus allows the use of very low concentration in a fragrance composition to achieve an olfactory effect.
EXAMPLE 24: DETERMINATION OF GC-ODOR THRESHOLD VALUES
According to standard procedures known to the person skilled in the art, threshold values for volatile perfumery compounds are determined on a gas chromatograph equipped with a sniff port by a panel of trained evaluators. The lowest concentration smelled by each panelist is recorded as the individual threshold value expressed in ng (absolute amount of compound delivered at the sniff port).
Under identical conditions the odor threshold value for the individual compounds was measured.

SMILES	odor threshold value [ng]
C=C(C)Cc1ccc2c(c1)C(=O)C(C)C2 (centres unmarked) [Example 22, 2-methyl-6-(2-methylallyl)-2,3-dihydro-1H-inden-1-one]	0.24
CCCc1cccc2c1CC(C)C2=O (centres unmarked) [Comparison Example 3, 2-methyl-4-propyl-2,3-dihydro-1H-inden-1-one]	6.25
CC1Cc2c(cccc2C2CC2)C1=O (centres unmarked) [Comparison Example 7, 4-cyclopropyl-2-methyl-2,3-dihydro-1H-inden-1-one]	31.7
C=C(C)Cc1cccc2c1CC(C)C2=O (centres unmarked) [Comparison Example 5, 2-methyl-4-(2-methylallyl)-2,3-dihydro-1H-inden-1-one]	6.25
C=C(C)Cc1cccc2c1C(=O)C(C)C2 (centres unmarked) [2-methyl-7-(2-methylallyl)-2,3-dihydro-1H-inden-1-one]	4.96
CC1Cc2cccc(C3CC3)c2C1=O (centres unmarked) [7-cyclopropyl-2-methyl-2,3-dihydro-1H-inden-1-one]	4.31
CC(C)Cc1ccc2c(c1)CC(C)C2=O (centres unmarked) [Comparison Example 1, 5-isobutyl-2-methyl-2,3-dihydro-1H-inden-1-one]	1.56
CCCc1ccc2c(c1)CC(C)C2=O (centres unmarked) [2-methyl-5-propyl-2,3-dihydro-1H-inden-1-one]	0.98
CC(C)Cc1ccc2c(c1)C(=O)C(C)C2 (centres unmarked) [Example 1, 6-isobutyl-2-methyl-2,3-dihydro-1H-inden-1-one]	0.06
CC1Cc2ccc(C3CC3)cc2C1=O (centres unmarked) [Example 11, 6-cyclopropyl-2-methyl-2,3-dihydro-1H-inden-1-one]	0.46
CCCc1ccc2c(c1)C(=O)C(C)C2 (centres unmarked) [Example 7, 2-methyl-6-propyl-2,3-dihydro-1H-inden-1-one]	0.04
